The source of these data is patent US20200102254A1, “BIOFERTILIZER AND METHODS OF MAKING AND USING SAME” (President and Fellows of Harvard College, priority 2017, published 2020).

In one assay the test system is X. autotrophicus. The conditions noted are these: read-out: half maximum inhibitory concentration (IC50).
Assay [1] relates to glutamine synthetase (GS). As to the kind of experiment: NH3 secretion in the hybrid device after addition of GS inhibitor. The assay is classed as cell-based, X. autotrophicus. The conditions noted are these: 50 μM inhibitor. How it is done: Eappl is defined as the voltage difference between the working (OER) and counter/reference (HER) electrodes in a two-electrode configuration. After inoculation with X. autotrophicus (initial OD600=0.2), the reactor was purged with the gas mixture at a flow rate between 5 to 20 mL min^−1. These electrochemical cells were stirred at 350 rpm to facilitate mass transport and were immersed in a 30° C. water bath. The electrolyte was sampled every 12 or 24 hr to quantify OD600 and N accumulation. For time points in which […] (GS) inhibitor phosphinothricin (PPT) was added with final concentration of 50 μM, aliquots were sampled prior to inhibitor addition. The reported data are based on at least three biological replicates (n≥3).
Ntotal was determined from sampled aliquots after persulfate digestion and based on the absorption of oxidized phenol under acidic conditions (Hach Company 2672245). Nsoluble was determined similarly as Ntotal, except that the supernatants after 10,000 rpm centrifugation were digested in persulfate and subsequently analyzed. NH3 was also determined from the supernatants after centrifugation, but based on the salicylate method that is selective to ammonia (Hach Company TNT830). […] For each category of nitrogen content, the nitrogen concentrations were determined by comparing the solution absorbance with those in standard curves. When PPT was added to induce NH3 secretion, the measured nitrogen concentrations presented in FIG. 5B and Table 3 was subtracted from the nitrogen in PPT (2 nitrogen atoms per each PPT molecule for Ntotal, and 1 nitrogen atom per each PPT for NH3). The PPT nitrogen content was also subtracted when calculating ηelec, NRR in Table 1.

The target of another assay is nitrogenase. The conditions noted are these: competitive inhibition of nitrogenase; cited from earlier work.

For `[Co+2]` [Co2+], the IC50 with X. autotrophicus is about 50 µM.

As to `CP(=O)(O)CC[C@H](N)C(=O)O` [PPT, phosphinothricin], the “biomass of X. autotrophicus after inhibitor addition” value in assay [1] is on record as “stagnated”. For the same compound, in assay [1] (Eappl=3.0 V), the “concentration of NNH3 at end of experiment” value is about 0.8 mM. In addition, in assay [1] (Eappl=3.0 V, n=3), the “accumulated Ntotal” value was determined as 47 ± 3 mg/L and the “concentration of N in free NH3 in the solution (NNH3) at end of experiment” value stood at 11 ± 2 mg/L. Further, the “biomass of X. autotrophicus after inhibitor addition” value in assay [1] (listed as phosphinothricin) is “slows”.

As for `[HH]` [H2, hydrogen], the “inhibition constant Ki(D2)” value on nitrogenase is given as about 11 kPa.
